Assay results reported in PMC10813153, “Development of a Novel Covalently Bonded Conjugate of Caprylic Acid Tripeptide (Isoleucine–Leucine–Aspartic Acid) for Wound-Compatible and Injectable Hydrogel to Accelerate Healing” (Biomolecules, 2024).
Entries after “also recorded” stand apart in the source; their conditions may differ. Where a SMILES comes first, the peptide text is derived from it. The star is where a group is joined. Palmitoyl = CCCCCCCCCCCCCCCC(=O)*; Myristoyl = CCCCCCCCCCCCCC(=O)*; Lauroyl = CCCCCCCCCCCC(=O)*; Octanoyl = CCCCCCCC(=O)*

Legend:
[1] = Hydrogel formation, confirmed by vial inversion method; assay type: physicochemical; conditions: for Gelation Time: time after the pH was adjusted to 7.4; for Gelation Feature: conjugate 1.5% w/v in PBS saline, pH 6.5–7.8, dissolved at pH 9 then readjusted, sonication, vial inversion; for Hydrogel stability when shaken by hand: visual, compared with other conjugates; for Concentration at which hydrogel forms in PBS: PBS buffer, remained a solution below, vial inversion test
Description: Lyophilized fatty acid–peptide conjugates were dissolved in phosphate-buffered saline (PBS) at a final concentration of 0.5% (5.0 mg in 1 mL of PBS), 1.5% (15.0 mg in 1 mL of PBS), and 3% (30.0 mg in 1 mL of PBS). The pH of the peptide solutions was increased to 9.0 by adding 0.1 M NaOH to dissolve the compounds and readjusted to pH 2–8 by the drop-wise addition of 0.1 N HCl, followed by sonication. […] The gel formation was confirmed by the vial inversion method, and photographs were taken.

[2] = Gross assessment of toxicity during wound healing test; design: species or system C57BL/6J mice; conditions: mouse, in vivo
Excerpt: The animal use protocol was authorized and approved by the Institutional Animal Care and Use Committee of Louisiana State University Health Sciences Center, New Orleans, and followed the ARRIVE guidelines. Briefly, full-thickness burn wounds (6 mm diameter) were generated in the dorsal skin on both sides along the midline of C57BL/6J mice (female, 18 months old, Jackson Laboratory, Bar Harbor, ME, USA) at 0 days post burn (dpb), similar to the procedures performed by us and others previously. Each treatment group included four mice. […] We monitored mouse health and behavior, including drinking, foraging, grooming, and eating, and we examined all wounds twice per day to ensure that the hydrogel and dressing stayed in place. Wound healing was assessed as described previously. The wounds were photographed, and their areas were calculated using NIH ImageJ software version 1.54d. […] The livers, kidneys, and spleens were also collected, weighed, and measured for size to obtain a gross assessment of toxicity. […] The epithelial gap—i.e., the distance between the neoepithelium emerging from the edges of the wound area—was measured using OLYMPUS OlyVIA software version 3.4.1 (Build 26606), as described previously but with some modifications.

[3] = Hydrogel formation, confirmed by vial inversion method; assay type: physicochemical; conditions: 1.5% w/v in PBS

Row | SMILES | Gelation Time ([1]; 1.5% w/v in PBS) [min] | Gelation Feature [1] | also measured
1 | CCCCCCCC(=O)N[C@H](C(=O)N[C@@H](CC(C)C)C(=O)N[C@@H](CC(=O)O)C(=O)O)[C@@H](C)CC [Compound 5] (Octanoyl-Ile-Leu-Asp-OH) | – | unable to form a hydrogel at all; also recorded: Not gelate | –
2 | CCCCCCCCCCCCCC(=O)N[C@H](C(=O)N[C@@H](CC(C)C)C(=O)N[C@@H](CC(=O)O)C(=O)O)[C@@H](C)CC [Compound 7] (Myristoyl-Ile-Leu-Asp-OH) | 10 | Hydrogels were formed | Hydrogel stability when shaken by hand [1]: weaker than those formed by Cn acid-ILD-NH2 with the same Cn acid
3 | CC[C@H](C)[C@H](N)C(=O)N[C@@H](CC(C)C)C(=O)N[C@@H](CC(=O)O)C(N)=O [Compound 1] (H-Ile-Leu-Asp-NH2) | – | did not gelate | –
4 | CCCCCCCCCCCC(=O)N[C@H](C(=O)N[C@@H](CC(C)C)C(=O)N[C@@H](CC(=O)O)C(=O)O)[C@@H](C)CC [Compound 6] (Lauroyl-Ile-Leu-Asp-OH) | 7 | Hydrogels were formed | Hydrogel stability when shaken by hand [1]: weaker than those formed by Cn acid-ILD-NH2 with the same Cn acid
5 | CCCCCCCCCCCC(=O)N[C@H](C(=O)N[C@@H](CC(C)C)C(=O)N[C@@H](CC(=O)O)C(N)=O)[C@@H](C)CC [Compound 3] (Lauroyl-Ile-Leu-Asp-NH2) | 6 | – | Concentration at which hydrogel forms in PBS [1]: ≥ 0.25 % (w/v)
6 | CCCCCCCC(=O)N[C@H](C(=O)N[C@@H](CC(C)C)C(=O)N[C@@H](CC(=O)O)C(N)=O)[C@@H](C)CC [Compound 2, caprylic acid–isoleucine–leucine–aspartic acid amide conjugate] (Octanoyl-Ile-Leu-Asp-NH2) | – | – | Systematic or local toxicity during the wound healing test [2]: did not show systematic or local toxicity; Gel stability at pH 2–8 ([1]; 1.5% w/v in PBS, pH 2–8): gelated and stable; also recorded: formed a hydrogel and stayed gelated; Hydrogel stability when shaken by hand [1]: more stable than either (3) or (4); Gel stability at pH 10 [3]: no gelation
7 | CCCCCCCCCCCCCCCC(=O)N[C@H](C(=O)N[C@@H](CC(C)C)C(=O)N[C@@H](CC(=O)O)C(N)=O)[C@@H](C)CC [Compound 4] (Palmitoyl-Ile-Leu-Asp-NH2) | 10 | – | Concentration at which hydrogel forms in PBS [1]: ≥ 0.25 % (w/v)

Second part, led by results:

Row | Gelation Time ([1]; 1.5% w/v in PBS) [min] | Gelation Feature [1] | SMILES | also measured
8 | 2 | – | CCCCCCCC(=O)N[C@H](C(=O)N[C@@H](C)C(=O)N[C@@H](CC(=O)O)C(N)=O)[C@@H](C)CC [Compound 9] (Octanoyl-Ile-Ala-Asp-NH2) | –
9 | 3 | – | CCCCCCCC(=O)N[C@H](C(=O)N[C@H](C(=O)N[C@@H](CC(=O)O)C(N)=O)C(C)C)[C@@H](C)CC [Compound 10] (Octanoyl-Ile-Val-Asp-NH2) | –
10 | 6 | – | CCCCCCCC(=O)N[C@H](C(=O)N[C@@H](CC(C)C)C(=O)N[C@@H](CC(=O)O)C(N)=O)C(C)C [Compound 13] (Octanoyl-Val-Leu-Asp-NH2) | –
11 | 15 | Hydrogels were formed | CCCCCCCCCCCCCCCC(=O)N[C@H](C(=O)N[C@@H](CC(C)C)C(=O)N[C@@H](CC(=O)O)C(=O)O)[C@@H](C)CC [Compound 8] (Palmitoyl-Ile-Leu-Asp-OH) | Hydrogel stability when shaken by hand [1]: weaker than those formed by Cn acid-ILD-NH2 with the same Cn acid
12 | 5 | – | CCCCCCCC(=O)N[C@@H](CC(C)C)C(=O)N[C@H](C(=O)N[C@@H](CC(=O)O)C(N)=O)[C@@H](C)CC [Compound 15] (Octanoyl-Leu-Ile-Asp-NH2) | –
13 | 5 | – | CCCCCCCC(=O)N[C@@H](CC(C)C)C(=O)N[C@@H](CC(C)C)C(=O)N[C@@H](CC(=O)O)C(N)=O [Compound 12] (Octanoyl-Leu-Leu-Asp-NH2) | –
14 | 5 | – | CCCCCCCC(=O)N[C@H](C(=O)N[C@H](C(=O)N[C@@H](CC(=O)O)C(N)=O)[C@@H](C)CC)[C@@H](C)CC [Compound 14] (Octanoyl-Ile-Ile-Asp-NH2) | –
15 | 3 | – | CCCCCCCC(=O)N[C@@H](C)C(=O)N[C@@H](CC(C)C)C(=O)N[C@@H](CC(=O)O)C(N)=O [Compound 11] (Octanoyl-Ala-Leu-Asp-NH2) | –
